Where two headings read alike, the source gives them in different places.
What was measured:
[1] = clinical; format: in vivo, human (patients with solid tumours); conditions: for Urinary excretion: 24 h urine
Excerpt: (§1) Topotecan (Hycamtin) is one of the prototypes of a promising new class of cytotoxic drugs that act through inhibition of topoisomerase I. Topoisomerase I is a nuclear enzyme that relieves the torsional strain in DNA ahead of the moving replication fork (Hsiang et al, 1988, 1989). Inhibition of the enzyme results in lethal DNA damage during transcription and replication. The E-ring lactone in the basic structure of topotecan is considered to be essential for interaction with the topoisomerase I enzyme (Hertzberg et al, 1989; Pommier et al, 1991). […] Prolonged administra- tion increases the probability that tumour cells will be exposed to topotecan during DNA replication, i.e. when they are most suscep- tible. In-vivo in patients there is yet no convincing evidence of a clinically relevant schedule dependency. Intravenous (i.v.) topotecan administered as daily 30-min infu- sions for 5 days has recently received marketing approval for the treatment of patients with ovarian cancer after failure of initial or subsequent platinum-based chemotherapy. An oral gelatin capsule formulation has now been developed (Creemers et al, 1997; Gerrits et al 1998). A phase I study has determined the maximum tolerated dose (MTD) for oral topotecan to be 2.3 mg m-2 for the daily times five dosing schedule (Gerrits et al, 1998). […] In these studies, bioavailability was tested in fasted patients. […] Food can have marked effects on drug absorption by increasing, decreasing, or sometimes simply delaying it. Food can also influence drug metabolism, and certain food components, such as protein and fat, are particularly potent in this respect. For an oral formulation it is therefore essential to investigate the effect of food co-administration on the pharmacokinetics. The aims of the present study were (1) to evaluate the effect of fed and fasted conditions on the bioavailability and pharmaco- kinetics of oral topotecan, and (2) to determine the absolute bioavailability of the gelatin capsule formulation. Oral topotecan: bioavailability and effect of food co-administration VMM Herben1,2 , H Rosing1 , WW ten Bokkel Huinink2 , DM van Zomeren1 , D Batchelor2 , E Doyle3 , FD Beusenberg4 , JH Beijnen1,2 and JHM Schellens2 1 Slotervaart Hospital/The Netherlands Cancer Institute, Department of Pharmacy and Pharmacology, Amsterdam, The Netherlands; 2 Antoni van Leeuwenhoek Hospital/The Netherlands Cancer Institute, Department of Medical Oncology, Amsterdam, The Netherlands; 3 SmithKline Beecham Pharmaceuticals, Department of Drug Metabolism and Pharmacokinetics, Hertfordshire, UK; 4 SmithKline Beecham Farma, Rijswijk, The Netherlands Summary The aims of the study were twofold: (1) to evaluate the effect of food on the relative oral bioavailability of topotecan gelatin capsules in patients with solid tumours, and (2) to determine the absolute bioavailability of oral topotecan with reference to the intravenous (i.v.) formulation. […] On day 1 of the first treatment course patients were administered 2.3 mg m-2 day-1 of oral topotecan with or without a high-fat breakfast. They crossed over to receive the alternate regimen on day 2. In the second course (3 weeks later) fasted patients received topotecan orally (2.3 mg m-2 day-1 ) or i.v. ([…]). They crossed over to receive the alternate regimen on day 2. On days 3-5 of both treatment courses patients received oral topotecan. Plasma pharmacokinetics were performed on days 1 and 2 of the first and second course using a high-performance liquid chromatographic assay. Eighteen patients were enrolled in the study. The ratio of the area under the curve to infinity during fasted and high-fat treatment was 0.93 0.23 (90% confidence interval (CI) 0.83-1.03). Maximal plasma concentrations of topotecan were similar after ingestion of the capsules with (10.6 4.4 ng ml-1 ) or without food (9.2 4.1 ng ml-1 ) (P = 0.130). […]

[2] = tested on: topoisomerase I; parameters: method as in Johnson and Wood, personal communication; conditions: ref Johnson and Wood, personal communication; cited from earlier work
[3] = parameters: method as in Eckardt et al, 1995; Schellens et al, 1996; conditions: i.v. formulation administered orally; fasted patients; ref Eckardt et al, 1995; Schellens et al, 1996; cited from earlier work
[4] = parameters: method as in Gerrits et al, 1998; conditions: oral gelatin capsule, ref Gerrits et al, 1998, cited from earlier work
[5] = clinical; parameters: species or system human (patients with solid tumours); conditions: human, in vivo
Excerpt: as §1

[6] = parameters: method as in Davies et al, 1995; conditions: dogs, ref Davies et al, 1995; cited from earlier work
[7] = metabolite as total of lactone and carboxylate, corrected for administered topotecan dose
[8] = total of the analyte, plasma, after i.v. topotecan 1.5 mg m-2
[9] = total, corrected for actual administered topotecan dose

Structure (SMILES): CC[C@@]1(O)C(=O)OCc2c1cc1n(c2=O)Cc2cc3c(CNC)c(O)ccc3nc2-1 [N-desmethyltopotecan]
- metabolic ratio (metabolite:topotecan AUC ratio) ([1]; after i.v. administration): 4.5%
- time at which maximal total metabolite plasma levels were reached, median ([1]; after ingestion of topotecan capsules): 4.0 h
- metabolic ratio (metabolite:topotecan AUC ratio) ([1]; after oral administration): 6.9%
- time at which maximal total metabolite plasma levels were reached, median ([1]; after the start of the i.v. infusion): 2.1 h
- lactone plasma concentrations ([1]; lactone form of metabolite, lower limit of quantification 0.1 ng ml-1): below the detection limit in six patients
- oral:i.v. AUC0- (to infinity) ratio [1, 7]: 62%
- oral:i.v. AUC0-t ratio [1, 7]: 71%
- Cmax ([1]; plasma, after i.v. topotecan 1.5 mg m-2): 0.44 ng/mL
- Cmax ([1]; plasma, after oral topotecan 2.3 mg m-2): 0.34 ng/mL
- t1/2 ratio oral/i.v. ([1]; total): 1.17
- AUC0-t ([1]; total (lactone + carboxylate) of the analyte, plasma, after oral topotecan 2.3 mg m-2): 2.7 ng·h/mL
- Urinary excretion ([1]; total of the analyte, % of i.v. topotecan dose): 0.9%
- Urinary excretion ([1]; total of the analyte, % of oral topotecan dose (topotecan corrected for F)): 1.1%
- t1/2 (apparent terminal half-life) ([1]; total of the analyte, after i.v. topotecan 1.5 mg m-2): 6.21 h
- t1/2 (apparent terminal half-life) ([1]; total of the analyte, after oral topotecan 2.3 mg m-2): 7.25 h
- AUC0- (area under the curve to infinity) [1, 8]: 4.8 ng·h/mL
- AUC0-t [1, 8]: 2.4 ng·h/mL
- AUC0- (area under the curve to infinity) ([1]; total of the analyte, plasma, after oral topotecan 2.3 mg m-2): 4.6 ng·h/mL
- AUC0- (to infinity) ratio oral/i.v. [1, 9]: 0.62
- AUC0-t ratio oral/i.v. [1, 9]: 0.71
- Cmax ratio oral/i.v. [1, 9]: 0.51
- topoisomerase I-inhibiting activity relative to parent compound [2]: slightly less topoisomerase I-inhibiting activity than the parent compound

Structure (SMILES): CC[C@@]1(O)C(=O)OCc2c1cc1n(c2=O)Cc2cc3c(CN(C)C)c(O)ccc3nc2-1 [topotecan, Topotecan]
- bioavailability [3]: 30-44%
- maximum tolerated dose (MTD) ([4]; daily times five dosing schedule): 2.3 mg m-2
- Dose-limiting toxicity (DLT) ([4]; daily times five): NCI CTC grade 4 neutropenia
- plasma concentration at the pre-dose time point for day 2 (carry-over), mean [5]: 0.43 ng/mL
- AUC0- (to infinity) ratio fasted/fed ([5]; po, 2.3 mg): 0.88
- time needed to reach maximal plasma levels (tmax), median ([5]; po, 2.3 mg): 2.0 h
- AUC0-t ([5]; po, 2.3 mg, AUC0-t): 19.6 ng·h/mL
- half-life ([5]; po, 2.3 mg, t1/2 (apparent terminal half-life)): 3.84 h
- Tmax ([5]; po, 2.3 mg, time needed to reach maximal plasma levels (tmax), median): 3.1 h
- half-life ([5]; total, oral 2.3 mg m-2, fed, read-out: t1/2 (apparent terminal half-life) (converted)): 3.49 h
- absolute bioavailability (F) using AUC0-t ([1]; human, in vivo): 40%
- bioavailability ([1]; human, in vivo, absolute bioavailability (F)): 42 ± 13%
- bioavailability ([1]; human, in vivo, bioavailability calculated using only the lactone data): 38%
- coefficient of variation of the AUC0- (interpatient variability) ([1]; human, in vivo, iv): 25%
- lactone:total topotecan AUC0- ratio ([1]; human, in vivo, iv): 0.38
- AUC0- (area under the curve to infinity) ([1]; human, in vivo, iv, 1.5 mg): 38.6 ng·h/mL
- t1/2 (apparent terminal half-life) ([1]; human, in vivo, iv, 1.5 mg): 2.64 h
- Cmax ([1]; human, in vivo, iv, 1.5 mg, Cmax): 33.9 ng/mL
- coefficient of variation of the AUC0- (interpatient variability) ([1]; human, in vivo, po): 44%
- lactone:total topotecan AUC0- ratio ([1]; human, in vivo, po): 0.35
- AUC0- (area under the curve to infinity) ([1]; human, in vivo, po, 2.3 mg): 22.7 ng·h/mL
- AUC0-t ([1]; human, in vivo, po, 2.3 mg): 20.4 ng·h/mL
- Cmax ([1]; human, in vivo, po, 2.3 mg, Cmax): 6.3 ng/mL
- part of an absorbed oral dose that enters the blood circulation as the open-ring form [6]: approximately 2.5%
